ChEMBL document CHEMBL4507268 (2021)

What was measured:
[1] = biological target: Sodium-dependent dopamine transporter (Homo sapiens) (UniProt Q01959); details: Compound concentration 10.0 uM
[2] = biological target: Serine/threonine-protein kinase pim-3 (Homo sapiens) (UniProt Q86V86); details: Compound concentration 1.0 uM
[3] = biological target: RAF proto-oncogene serine/threonine-protein kinase (Homo sapiens) (UniProt P04049); details: Compound concentration 1.0 uM
[4] = biological target: Serine/threonine-protein kinase PAK 1 (Homo sapiens) (UniProt Q13153); details: Compound concentration 1.0 uM
[5] = biological target: SRSF protein kinase 3 (Homo sapiens) (UniProt Q9UPE1); details: Compound concentration 1.0 uM
[6] = biological target: CDK18/Cyclin Y (Homo sapiens) (UniProt Q07002+Q8ND76); details: Compound concentration 1.0 uM
[7] = biological target: Mitogen-activated protein kinase 14 (Homo sapiens) (UniProt Q16539); details: Compound concentration 1.0 uM
[8] = biological target: Cyclin-dependent kinase 5/CDK5 activator 1 (Homo sapiens) (UniProt Q00535+Q15078); details: Compound concentration 1.0 uM
[9] = biological target: T1, Activin receptor type-1B (Homo sapiens) (UniProt P36896); details: Compound concentration 1.0 uM
T1 sequence (whole entry): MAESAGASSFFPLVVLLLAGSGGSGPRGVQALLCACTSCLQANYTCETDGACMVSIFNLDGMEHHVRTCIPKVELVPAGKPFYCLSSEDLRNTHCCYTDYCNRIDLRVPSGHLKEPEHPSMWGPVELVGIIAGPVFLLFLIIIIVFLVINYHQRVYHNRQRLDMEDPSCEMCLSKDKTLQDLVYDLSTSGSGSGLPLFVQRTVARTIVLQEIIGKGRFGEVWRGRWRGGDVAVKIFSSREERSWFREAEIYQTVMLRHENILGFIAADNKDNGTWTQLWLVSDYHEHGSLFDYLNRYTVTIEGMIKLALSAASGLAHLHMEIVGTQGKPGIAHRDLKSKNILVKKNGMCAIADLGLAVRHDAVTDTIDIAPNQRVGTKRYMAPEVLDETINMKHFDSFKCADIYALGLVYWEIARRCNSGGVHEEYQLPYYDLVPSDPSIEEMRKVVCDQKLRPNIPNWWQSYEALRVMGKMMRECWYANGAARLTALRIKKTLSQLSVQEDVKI

[10] = biological target: 5'-AMP-activated protein kinase catalytic subunit alpha-2 (Homo sapiens) (UniProt P54646); details: Compound concentration 1.0 uM
[11] = biological target: Ribosomal protein S6 kinase beta-1 (Homo sapiens) (UniProt P23443); details: Compound concentration 1.0 uM
[12] = biological target: T2, Serine/threonine-protein kinase Nek2 (Homo sapiens) (UniProt P51955); details: Compound concentration 1.0 uM
T2 sequence (whole entry): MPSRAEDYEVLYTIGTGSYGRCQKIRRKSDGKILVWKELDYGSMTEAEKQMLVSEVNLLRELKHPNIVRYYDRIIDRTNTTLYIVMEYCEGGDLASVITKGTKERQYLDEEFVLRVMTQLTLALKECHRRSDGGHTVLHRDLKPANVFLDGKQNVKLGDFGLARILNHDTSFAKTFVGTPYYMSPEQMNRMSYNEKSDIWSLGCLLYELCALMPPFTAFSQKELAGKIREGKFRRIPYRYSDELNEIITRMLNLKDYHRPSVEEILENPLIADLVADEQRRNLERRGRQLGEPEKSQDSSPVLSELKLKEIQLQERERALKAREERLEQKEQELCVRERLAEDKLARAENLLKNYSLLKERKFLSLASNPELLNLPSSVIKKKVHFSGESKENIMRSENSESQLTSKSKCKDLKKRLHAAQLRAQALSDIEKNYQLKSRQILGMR

[13] = biological target: Serine/threonine-protein kinase SIK2 (Homo sapiens) (UniProt Q9H0K1); details: Compound concentration 1.0 uM
[14] = biological target: Insulin-like growth factor 1 receptor (Homo sapiens) (UniProt P08069); details: Compound concentration 1.0 uM
[15] = biological target: T3, Ephrin type-A receptor 8 (Homo sapiens) (UniProt P29322); details: Compound concentration 1.0 uM
T3 sequence (whole entry): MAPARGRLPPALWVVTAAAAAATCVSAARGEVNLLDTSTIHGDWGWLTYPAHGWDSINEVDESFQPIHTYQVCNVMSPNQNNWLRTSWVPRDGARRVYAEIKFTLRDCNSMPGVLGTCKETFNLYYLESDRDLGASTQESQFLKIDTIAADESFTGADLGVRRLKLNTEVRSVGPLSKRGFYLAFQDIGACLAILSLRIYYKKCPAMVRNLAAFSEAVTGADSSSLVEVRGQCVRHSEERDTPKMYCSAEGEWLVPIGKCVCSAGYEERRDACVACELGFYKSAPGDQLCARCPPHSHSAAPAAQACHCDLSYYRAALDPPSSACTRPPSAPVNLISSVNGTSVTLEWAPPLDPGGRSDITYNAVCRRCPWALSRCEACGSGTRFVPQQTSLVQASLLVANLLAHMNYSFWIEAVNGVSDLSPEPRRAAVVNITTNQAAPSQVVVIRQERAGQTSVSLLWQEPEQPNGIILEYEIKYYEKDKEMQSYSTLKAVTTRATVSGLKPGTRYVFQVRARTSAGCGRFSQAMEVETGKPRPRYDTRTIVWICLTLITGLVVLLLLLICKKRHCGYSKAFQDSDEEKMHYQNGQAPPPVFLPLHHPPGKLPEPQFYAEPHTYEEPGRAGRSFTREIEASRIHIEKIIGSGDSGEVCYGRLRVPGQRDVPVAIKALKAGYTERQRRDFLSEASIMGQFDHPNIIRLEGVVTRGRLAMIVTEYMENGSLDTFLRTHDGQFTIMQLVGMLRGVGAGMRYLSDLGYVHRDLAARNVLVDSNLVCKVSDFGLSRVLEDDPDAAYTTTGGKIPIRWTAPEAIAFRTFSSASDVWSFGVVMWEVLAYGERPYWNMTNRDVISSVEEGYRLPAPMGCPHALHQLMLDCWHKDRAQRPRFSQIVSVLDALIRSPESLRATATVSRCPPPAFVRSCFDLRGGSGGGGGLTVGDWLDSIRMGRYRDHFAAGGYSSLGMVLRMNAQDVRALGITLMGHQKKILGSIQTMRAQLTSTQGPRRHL

[16] = biological target: Serine/threonine-protein kinase Chk2 (Homo sapiens) (UniProt O96017); details: Compound concentration 1.0 uM
Chain of Serine/threonine-protein kinase Chk2 (Homo sapiens) (O96017 whole entry): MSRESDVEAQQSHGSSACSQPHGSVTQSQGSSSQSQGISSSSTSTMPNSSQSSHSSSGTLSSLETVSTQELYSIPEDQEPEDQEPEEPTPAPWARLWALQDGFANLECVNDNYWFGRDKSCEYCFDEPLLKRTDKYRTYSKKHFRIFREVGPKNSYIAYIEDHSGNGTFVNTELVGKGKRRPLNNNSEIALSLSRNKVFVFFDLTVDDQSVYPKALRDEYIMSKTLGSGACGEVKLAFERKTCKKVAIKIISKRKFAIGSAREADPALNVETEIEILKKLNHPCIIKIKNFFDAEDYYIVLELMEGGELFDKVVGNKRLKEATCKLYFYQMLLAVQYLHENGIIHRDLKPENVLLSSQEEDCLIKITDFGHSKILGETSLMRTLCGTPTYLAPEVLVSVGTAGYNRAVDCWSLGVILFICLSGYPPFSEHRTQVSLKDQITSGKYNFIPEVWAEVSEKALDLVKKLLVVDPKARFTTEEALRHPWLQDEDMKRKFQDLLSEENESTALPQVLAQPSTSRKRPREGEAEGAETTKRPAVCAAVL

Chain of Ribosomal protein S6 kinase beta-1 (Homo sapiens) (P23443 whole entry, looked up): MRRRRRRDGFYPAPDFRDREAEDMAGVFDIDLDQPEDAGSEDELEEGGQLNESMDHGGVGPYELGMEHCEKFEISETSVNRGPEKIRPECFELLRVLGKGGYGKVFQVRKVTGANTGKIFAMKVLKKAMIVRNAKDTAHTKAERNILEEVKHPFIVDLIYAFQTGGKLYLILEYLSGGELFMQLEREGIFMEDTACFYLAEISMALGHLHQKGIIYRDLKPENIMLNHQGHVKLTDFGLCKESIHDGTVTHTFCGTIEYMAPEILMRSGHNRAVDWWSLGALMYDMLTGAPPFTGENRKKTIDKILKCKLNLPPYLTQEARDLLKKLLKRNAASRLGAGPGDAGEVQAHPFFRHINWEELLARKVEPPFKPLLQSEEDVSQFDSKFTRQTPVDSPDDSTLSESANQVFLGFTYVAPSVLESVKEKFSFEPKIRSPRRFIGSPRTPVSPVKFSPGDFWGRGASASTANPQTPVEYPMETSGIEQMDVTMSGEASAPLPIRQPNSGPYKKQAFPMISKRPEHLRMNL
Chain of Sodium-dependent dopamine transporter (Homo sapiens) (Q01959 whole entry): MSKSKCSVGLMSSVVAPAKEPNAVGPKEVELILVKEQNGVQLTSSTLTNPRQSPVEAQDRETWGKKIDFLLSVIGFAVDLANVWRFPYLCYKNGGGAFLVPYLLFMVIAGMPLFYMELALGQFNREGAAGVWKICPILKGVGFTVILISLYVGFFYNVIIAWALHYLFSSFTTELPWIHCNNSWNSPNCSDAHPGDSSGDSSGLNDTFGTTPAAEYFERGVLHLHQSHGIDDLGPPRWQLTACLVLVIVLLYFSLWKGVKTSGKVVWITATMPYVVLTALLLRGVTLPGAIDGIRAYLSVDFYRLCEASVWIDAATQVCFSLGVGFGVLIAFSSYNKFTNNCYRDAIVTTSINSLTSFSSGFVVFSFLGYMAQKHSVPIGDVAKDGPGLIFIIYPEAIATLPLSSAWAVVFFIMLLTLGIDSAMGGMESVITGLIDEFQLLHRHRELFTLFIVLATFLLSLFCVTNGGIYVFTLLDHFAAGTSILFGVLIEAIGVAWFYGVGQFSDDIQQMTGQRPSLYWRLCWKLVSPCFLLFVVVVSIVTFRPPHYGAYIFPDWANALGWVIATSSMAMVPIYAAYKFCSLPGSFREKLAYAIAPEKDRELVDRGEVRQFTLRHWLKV
Chain of 5'-AMP-activated protein kinase catalytic subunit alpha-2 (Homo sapiens) (P54646 whole entry, looked up): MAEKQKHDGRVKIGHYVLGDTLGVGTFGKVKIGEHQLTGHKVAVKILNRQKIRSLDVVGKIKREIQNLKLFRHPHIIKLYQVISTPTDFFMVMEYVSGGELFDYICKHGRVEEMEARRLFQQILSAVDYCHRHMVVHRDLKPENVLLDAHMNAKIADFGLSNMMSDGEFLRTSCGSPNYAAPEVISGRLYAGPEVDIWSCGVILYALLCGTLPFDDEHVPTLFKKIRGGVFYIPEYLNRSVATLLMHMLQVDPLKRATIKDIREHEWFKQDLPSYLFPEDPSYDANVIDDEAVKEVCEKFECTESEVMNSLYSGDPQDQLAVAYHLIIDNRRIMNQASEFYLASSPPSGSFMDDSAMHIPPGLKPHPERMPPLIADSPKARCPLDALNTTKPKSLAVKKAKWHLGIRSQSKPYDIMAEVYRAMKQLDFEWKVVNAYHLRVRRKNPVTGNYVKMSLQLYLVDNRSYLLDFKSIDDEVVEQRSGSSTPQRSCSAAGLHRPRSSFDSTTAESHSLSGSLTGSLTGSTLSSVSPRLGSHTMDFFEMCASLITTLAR
Chain of Insulin-like growth factor 1 receptor (Homo sapiens) (P08069 31-736 limits assumed): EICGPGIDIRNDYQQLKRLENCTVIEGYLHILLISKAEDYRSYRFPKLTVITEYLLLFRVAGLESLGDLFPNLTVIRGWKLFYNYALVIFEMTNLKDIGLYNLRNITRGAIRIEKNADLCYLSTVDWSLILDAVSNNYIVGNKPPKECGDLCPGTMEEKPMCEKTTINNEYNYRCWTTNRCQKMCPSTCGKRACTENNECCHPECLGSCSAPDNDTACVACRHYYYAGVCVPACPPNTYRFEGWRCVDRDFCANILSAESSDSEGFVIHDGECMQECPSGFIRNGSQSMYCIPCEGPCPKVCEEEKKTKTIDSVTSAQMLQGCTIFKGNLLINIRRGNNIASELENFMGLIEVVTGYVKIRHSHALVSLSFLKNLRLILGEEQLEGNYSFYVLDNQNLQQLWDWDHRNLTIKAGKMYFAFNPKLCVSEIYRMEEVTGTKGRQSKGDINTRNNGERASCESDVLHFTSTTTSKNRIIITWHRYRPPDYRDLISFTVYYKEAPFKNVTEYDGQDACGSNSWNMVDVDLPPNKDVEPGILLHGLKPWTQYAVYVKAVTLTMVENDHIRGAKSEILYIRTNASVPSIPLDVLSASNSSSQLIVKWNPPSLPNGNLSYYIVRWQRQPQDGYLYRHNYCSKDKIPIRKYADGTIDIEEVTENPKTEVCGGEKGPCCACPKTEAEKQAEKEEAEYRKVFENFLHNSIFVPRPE
Chain of Insulin-like growth factor 1 receptor (Homo sapiens) (P08069 741-1367 limits assumed): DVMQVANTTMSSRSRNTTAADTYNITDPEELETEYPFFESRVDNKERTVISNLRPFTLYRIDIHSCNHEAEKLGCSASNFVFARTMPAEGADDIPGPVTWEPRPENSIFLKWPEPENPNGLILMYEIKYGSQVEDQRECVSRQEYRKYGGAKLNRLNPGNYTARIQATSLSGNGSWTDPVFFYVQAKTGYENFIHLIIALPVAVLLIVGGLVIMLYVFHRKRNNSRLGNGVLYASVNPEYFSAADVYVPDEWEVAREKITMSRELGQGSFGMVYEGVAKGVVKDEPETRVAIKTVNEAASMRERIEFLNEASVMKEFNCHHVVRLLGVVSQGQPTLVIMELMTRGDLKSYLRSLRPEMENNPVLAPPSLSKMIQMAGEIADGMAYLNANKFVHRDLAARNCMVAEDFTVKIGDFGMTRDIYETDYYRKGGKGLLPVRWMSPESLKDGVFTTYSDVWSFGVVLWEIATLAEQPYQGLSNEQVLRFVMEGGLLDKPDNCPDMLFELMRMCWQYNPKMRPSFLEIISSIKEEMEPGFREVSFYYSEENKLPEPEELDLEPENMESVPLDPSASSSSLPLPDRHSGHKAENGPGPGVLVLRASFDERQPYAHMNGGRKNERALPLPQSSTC
Chain of Serine/threonine-protein kinase PAK 1 (Homo sapiens) (Q13153 whole entry): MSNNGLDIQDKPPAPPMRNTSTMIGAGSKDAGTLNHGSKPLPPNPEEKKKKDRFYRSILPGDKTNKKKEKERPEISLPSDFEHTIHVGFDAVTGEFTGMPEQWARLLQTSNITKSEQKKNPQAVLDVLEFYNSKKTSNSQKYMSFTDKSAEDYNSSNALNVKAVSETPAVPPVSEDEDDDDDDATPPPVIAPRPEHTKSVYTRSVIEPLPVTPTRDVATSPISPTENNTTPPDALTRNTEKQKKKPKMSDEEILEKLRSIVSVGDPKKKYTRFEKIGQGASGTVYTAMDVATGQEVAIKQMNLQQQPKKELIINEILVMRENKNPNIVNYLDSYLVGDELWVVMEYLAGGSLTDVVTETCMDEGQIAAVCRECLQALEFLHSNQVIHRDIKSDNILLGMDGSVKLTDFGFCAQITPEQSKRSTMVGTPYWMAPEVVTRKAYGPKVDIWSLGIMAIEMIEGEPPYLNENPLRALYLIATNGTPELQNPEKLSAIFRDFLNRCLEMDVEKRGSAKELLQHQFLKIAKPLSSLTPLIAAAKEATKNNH
Chain of Cyclin-dependent kinase 5/CDK5 activator 1 (Homo sapiens) (Q00535 whole entry): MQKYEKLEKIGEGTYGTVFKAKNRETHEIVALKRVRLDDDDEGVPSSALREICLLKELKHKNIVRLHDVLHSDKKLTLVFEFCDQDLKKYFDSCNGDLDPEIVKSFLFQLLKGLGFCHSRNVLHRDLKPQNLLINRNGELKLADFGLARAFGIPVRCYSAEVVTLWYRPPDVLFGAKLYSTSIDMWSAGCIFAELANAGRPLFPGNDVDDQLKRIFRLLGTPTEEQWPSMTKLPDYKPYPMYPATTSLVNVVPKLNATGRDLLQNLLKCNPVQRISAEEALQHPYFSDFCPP
Chain of Cyclin-dependent kinase 5/CDK5 activator 1 (Homo sapiens) (Q15078 99-307 partner limits assumed): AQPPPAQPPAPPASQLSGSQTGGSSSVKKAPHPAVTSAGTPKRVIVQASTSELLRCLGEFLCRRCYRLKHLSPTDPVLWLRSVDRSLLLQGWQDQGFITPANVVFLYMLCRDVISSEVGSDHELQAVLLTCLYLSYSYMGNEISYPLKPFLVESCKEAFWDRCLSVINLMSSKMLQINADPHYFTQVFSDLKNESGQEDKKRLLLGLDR

CN1CCN(c2cnc3c(C4CCN(C(=O)c5ccc(OC(F)(F)F)cc5N)CC4)ncnc3c2)CC1 [BAY-885]
inactive: inhibition [1] -4.2% | % residual kinase activity [2] 102% | % residual kinase activity [3] 107% | % residual kinase activity [4] 95% | % residual kinase activity [5] 78% | % residual kinase activity [6] 100% | % residual kinase activity [7] 113% | % residual kinase activity [8] 107% | % residual kinase activity [9] 98% | % residual kinase activity [10] 109% | % residual kinase activity [11] 118% | % residual kinase activity [12] 111% | % residual kinase activity [13] 101% | % residual kinase activity [14] 107% | % residual kinase activity [15] 104% | % residual kinase activity [16] 92%
